Reference: PubChem BioAssay (NCI)
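In this assay, cells in 96-well plates receive the compound at five concentrations for 48 hours. Endpoints are linearly interpolated between the surrounding concentrations. GI50 is the concentration that inhibits growth by half. TGI: total growth inhibition.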

How the values were obtained:
Assay in all cases: growth of human tumour cells (NCI), 48 h
BT-549 breast = system: BT-549 breast
LOX IMVI melanoma = system: LOX IMVI melanoma
M14 melanoma = system: M14 melanoma
DU-145 prostate = system: DU-145 prostate
SK-MEL-28 melanoma = system: SK-MEL-28 melanoma
NCI-H226 lung = system: NCI-H226 lung
SK-OV-3 ovarian = system: SK-OV-3 ovarian
COLO 205 colon = system: COLO 205 colon
UO-31 renal = system: UO-31 renal
MOLT-4 leukemia = system: MOLT-4 leukemia

Row | Structure (SMILES) | TGI (BT-549 breast) [µM] | TGI (LOX IMVI melanoma) [µM] | TGI (M14 melanoma) [µM] | TGI (DU-145 prostate) [µM] | TGI (SK-MEL-28 melanoma) [µM] | TGI (NCI-H226 lung) [µM] | TGI (SK-OV-3 ovarian) [µM] | TGI (COLO 205 colon) [µM] | TGI (UO-31 renal) [µM] | TGI (MOLT-4 leukemia) [µM] | GI50 (BT-549 breast) [µM] | GI50 (LOX IMVI melanoma) [µM] | GI50 (M14 melanoma) [µM] | GI50 (DU-145 prostate) [µM] | GI50 (SK-MEL-28 melanoma) [µM] | GI50 (NCI-H226 lung) [µM] | GI50 (SK-OV-3 ovarian) [µM] | GI50 (COLO 205 colon) [µM] | GI50 (UO-31 renal) [µM] | GI50 (MOLT-4 leukemia) [µM]
1 | CCCCCC/C=C1\CCC(CN(C)C)C1=O (centres undefined) | 53.1 | 3.79 | 16.7 | 41.3 | 12 | 36.5 | 34.7 | 8.4 | 28.9 | 18.7 | – | – | – | – | – | – | – | – | – | –
2 | Nc1nc(-c2ccccc2)cc(-c2ccc(Cl)cc2)c1-c1nc2ccccc2o1 | 29.7 | 18.4 | 35.4 | 26 | 32.6 | 29.2 | 30.7 | 37.3 | 21.3 | 20.3 | 15.5 | 6.04 | 14.5 | 12.8 | 17 | 14.5 | 15.9 | 21.4 | 8.36 | 5
3 | CCOCCOC[C@H]1CCCN(c2ccnc3sc(C(N)=O)c(N)c23)C1 | > 100 | > 100 | > 100 | > 100 | > 100 | > 100 | > 100 | > 100 | > 100 | > 100 | 9.35 | 29.3 | 63.1 | 73.1 | 23.5 | > 100 | 40.3 | 59.7 | 15.3 | 10.1
4 | N#CSc1ccc(S(N)(=O)=O)cc1 | > 100 | > 100 | 45.5 | > 100 | > 100 | > 100 | > 100 | > 100 | 35.2 | 29.6 | – | – | – | – | – | – | – | – | – | –
5 | O=S(=O)(Nc1ccccn1)c1ccc(N=Nc2ccc(O)c3ncccc23)cc1 | 7.04 | 16 | 5.55 | 26.7 | 26 | 10.8 | 6.59 | 26.2 | 3.33 | > 23.9 | 1.25 | 0.735 | 1.21 | 3.22 | 1.72 | 2.96 | 1.7 | 7.62 | 0.696 | 1.37
6 | Cc1ccc(C2=NN(c3ccc(S(N)(=O)=O)cc3)C(c3cn(-c4ccccc4)nc3-c3ccccc3)C2)cc1 (centres undefined) | 61.6 | > 100 | > 100 | > 100 | > 100 | > 100 | > 100 | > 100 | > 100 | > 100 | 3.85 | 24.9 | 8.54 | 67.9 | 39.2 | 30.7 | > 100 | 15.1 | 5.38 | 3.72
7 | COc1ccc(C(c2cc3c(cc2O)OCO3)N2CCOCC2)cc1OC (centres undefined) | 43.8 | 16.5 | 24.9 | 24.4 | 32.9 | 24.6 | 28.7 | 28.8 | 25 | 80.8 | – | – | – | – | – | – | – | – | – | –
8 | C[C@@H]1OCC2(CCN(c3cnc(Sc4ccnc(N)c4Cl)c(N)n3)CC2)[C@@H]1N | > 100 | > 100 | > 100 | > 100 | > 100 | > 100 | > 100 | > 100 | > 100 | > 100 | 34.6 | > 100 | > 100 | > 67.8 | > 100 | – | 1.04 | > 100 | 0.926 | > 90.9
9 | COc1ccc2nc(-c3cc4c([nH]c5ccccc54)c(-c4ccc(F)c(F)c4)n3)[nH]c2c1 | 22.5 | 10.8 | 16.9 | 17.3 | 27 | 42.5 | 31.4 | 4.66 | 16.1 | 7.39 | 6.3 | 2.86 | 4.02 | 4.13 | 12.7 | 8.91 | 17.1 | 1.88 | 1.46 | 2.03
10 | Oc1c(CN2CCN(c3ccccc3F)CC2)cc(Br)c2cccnc12 | > 100 | 10.3 | 16.5 | 17.7 | > 100 | 9.5 | 27.9 | 55 | 3.58 | 5.92 | 2.02 | 0.676 | 0.924 | 1.71 | 2.49 | 1.17 | 1.45 | 16.1 | 0.259 | 0.743
